Series [1] is described as follows: Hepatocyte intrinsic clearance assay (metabolic stability), human hepatocytes. It is filed as in vitro ADME. Conditions: male, human, cryopreserved pooled hepatocytes, Human Hepatocytes, 1 μM test compound. An excerpt:
(§1) The liver is an important organ in the body for drug metabolism. This Example describes hepatocyte intrinsic clearance assays using both human and rat hepatocytes to evaluate the metabolic stability of the indole compounds disclosed herein. The parameters measured include t1/2 (half-life), CLint (intrinsic clearance), and EH (hepatic extraction ratio).
(§2) Testosterone (Lot FE111011-01) was obtained from Cerilliant (Round Rock, Tex.). 7-hydroxycoumarin (Lot 11631ED) was obtained from Sigma Aldrich (St. Louis, Mo.). Cryopreserved human hepatocytes pooled from ten donor males (X008001), cryopreserved male IRC/CD-1 mouse hepatocytes (M005052), INVITROGRO HI Medium (incubation), and INVITROGRO HT Medium (thawing) were obtained from Bioreclamation IVT (Baltimore, Md.). All solvents were obtained from commercial sources and used without further purification.
(§3) Each test compound was prepared as a 1 mM stock solution in DMSO. A 2 μM solution of test compound and positive controls were prepared in INVITROGRO HI Medium (incubation). These solutions were pre-warmed in a sterile incubator set to maintain 37° C., 5% CO2, and 98% humidity. Cryopreserved hepatocytes were prepared at a concentration of 2×10^6 living cells/mL in incubation media and pre-warmed in the incubator. The compound solutions and hepatocyte mixtures were then combined at a ratio of 1:1 (v:v). The final volume of the reaction mixture was 750 μL, containing 1 μM test compound (10 μM for 7-hydroxycoumarin) and […]. The reaction mixture was placed in the incubator on a plate shaker. After 0, 15, 30, 60, 90, and 120 minutes of incubation, 100 μL of reaction mixtures were removed from the incubation plate and mixed with 150 μL of ice-cold acetonitrile in a designated well of a 96-well crash plate. The 96-well crash plate was placed on ice for 15 min, and samples were centrifuged (3,600 RPM, 10 min, 4° C.) to precipitate protein. The supernatants were diluted 1:1 (v:v) with water containing 0.15 μM verapamil and/or 1 μM tolbutamide (internal standards for positive and negative modes, respectively) in a 96-well shallow injection plate. This plate was sealed for LC-MS analysis. All measurements were done in duplicate.
(§4) The residual compound remaining (% R) was determined from LC-MS peak areas by comparison to the zero time point. Metabolic half-life (t1/2) and intrinsic clearance (CLint) values were calculated from the slope of the plot of ln (% R) vs. time and the concentration of hepatocytes present in the incubation. Percent remaining at 60 minutes was calculated by plugging in the 60 minute value into the slope equation generated by the percent remaining time points.
(§5) In vivo hepatic clearance CLH was calculated using the well stirred liver model according to the following equation:
(§6) [formula] where QH is the total liver blood flow, fu is unbound fraction of the drug, and CL′int is defined as follows: CL′int=CLint×(10^6 cells/g of liver weight)×(g liver weight/kg of body weight). In the first approximation, used in this study, fu=1.
(§7) Hepatic extraction ratio EH was calculated using the following equation:
(§8) [formula] Corresponding physiological parameters used in calculations for all species are shown below in Table 3.

For series [2], the system named is human hepatocytes. The description is as above. Format: in vitro ADME. Conditions: Human Hepatocytes; for EH (hepatic extraction ratio): well stirred liver model, fu=1.
From the text: as §1, §2, §3, §4, §5, §6, §7, §8

Series [3] is described as follows: Hepatocyte intrinsic clearance assay (metabolic stability), rat hepatocytes. It is filed as in vitro ADME. Conditions: rat, cryopreserved hepatocytes, Rat Hepatocytes, 1 μM test compound.
From the text: as §1, §2, §3, §4, §5, §6, §7, §8

The test system of series [4] is rat hepatocytes. The description is as above. It is filed as in vitro ADME. Conditions: Rat Hepatocytes; for EH (hepatic extraction ratio): well stirred liver model, fu=1.
From the text: as §1, §2, §3, §4, §5, §6, §7, §8

Series [5] addresses T1, AhR (Homo sapiens, UniProt P35869).
T1 construct: host or cells: human HepG2 cells
T1 sequence (P35869 11-848): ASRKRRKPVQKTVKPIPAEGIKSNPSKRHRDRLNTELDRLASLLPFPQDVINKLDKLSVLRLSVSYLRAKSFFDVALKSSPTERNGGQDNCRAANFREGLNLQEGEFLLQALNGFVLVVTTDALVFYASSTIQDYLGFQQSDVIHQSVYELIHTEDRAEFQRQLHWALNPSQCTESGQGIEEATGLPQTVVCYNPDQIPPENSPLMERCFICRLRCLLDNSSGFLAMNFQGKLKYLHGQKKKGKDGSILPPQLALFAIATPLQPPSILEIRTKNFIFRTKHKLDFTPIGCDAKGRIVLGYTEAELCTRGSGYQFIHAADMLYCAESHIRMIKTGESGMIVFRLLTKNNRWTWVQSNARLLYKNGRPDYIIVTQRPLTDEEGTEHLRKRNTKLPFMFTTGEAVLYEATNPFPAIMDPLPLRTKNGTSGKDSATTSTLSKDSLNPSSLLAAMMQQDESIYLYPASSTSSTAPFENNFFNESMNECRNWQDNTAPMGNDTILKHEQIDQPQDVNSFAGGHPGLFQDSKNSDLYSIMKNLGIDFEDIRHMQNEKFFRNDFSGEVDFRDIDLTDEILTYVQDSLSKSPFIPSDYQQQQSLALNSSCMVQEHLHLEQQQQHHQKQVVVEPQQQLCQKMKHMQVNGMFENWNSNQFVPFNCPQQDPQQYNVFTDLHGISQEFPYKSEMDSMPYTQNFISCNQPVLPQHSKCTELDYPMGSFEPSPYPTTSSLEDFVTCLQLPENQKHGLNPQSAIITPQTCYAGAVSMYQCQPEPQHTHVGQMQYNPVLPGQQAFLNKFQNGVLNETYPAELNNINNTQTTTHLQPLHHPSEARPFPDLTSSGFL
Kind of series: EROD assay (7-ethoxy-resorufin-O-deethylase; CYP1A1 activity) in human HepG2 cells. Format: cell-based. How it is done: CYP1A1 induction is under the control of the AhR signaling pathway. This Example describes an in vitro assay (7-ethoxy-resorufin-O-deethylase (EROD) assay) that evaluated the AhR modulating activities of the indole compounds described herein. In this assay, the indole compounds were incubated with human HepG2 cells or mouse Hepa1-6 cells. The activity of CYP1A1 in the cells was measured by the conversion of substrate 7-ethoxyresorufin, with the readout being a fluorescence signal associated with the conversion product. The EC50 values of the indole compounds as well as the maximum luminescence induced by them in the assay were determined.
Human HepG2 cells were obtained from Sigma Aldrich (Catalog 85011430-1VL).
Human HepG2 cells were grown to 60-80% confluency in tissue culture flasks, lifted with non-enzymatic cell dissociation solution (cell stripper), seeded in a 384-well plate at 5,000 cells per well, treated with the test compounds, and incubated for 20 hours overnight at 37° C. The treatment medium was removed and a solution of substrate 7-ethoxyresorufin (ETX) was added to initiate the reaction. The plate was incubated at 37° C. for 30 minutes. The reaction was subsequently terminated by adding tempered methanol. Fluorescent emission was measured at 590 nm with excitation at 530 nm in a FLEXSTATION III instrument (Molecular Devices).

Where [6] appears, read: HepG2, human HepG2 cells, Plate 1.

The term half-life denotes the time needed for the level to fall by half in the phase considered. The low end stands for rapid decline, the high end for slow decline. The term hepatocyte CLint denotes the rate of metabolic loss divided by the concentration. Low values mean greater metabolic stability, high ones faster metabolism. With `O=C(c1nc(C(O)C(F)(F)F)cs1)c1c[nH]c2ccccc12` (centres unmarked) [ARI088], the half-life at 1 μM in series [1] is 54 min; in series [3], 60 min. Also, the figures for the hepatocyte CLint at 1 μM in series [1] and in series [3] were 12.4 µL/min/1e6 cells and 11.6 µL/min/1e6 cells, respectively. Moreover, the figures for the “EH (hepatic extraction ratio)” value in series [2] and in series [4] were 24.1% and 43.7%, respectively.

On to `CCC(C)(O)c1csc(C(=O)c2c[nH]c3cc(F)ccc23)n1` (centres unmarked) [ARI209, (6-fluoro-1H-indol-3-yl)(4-(2-hydroxybutan-2-yl)thiazol-2-yl)methanone], for which the values for the half-life at 1 μM in series [1] and in series [3] were 48 min and 54 min, respectively. Besides, the figures for the intrinsic metabolic clearance (hepatocyte CLint) at 1 μM in series [1] and in series [3] were 14.7 µL/min/1e6 cells and 12.2 µL/min/1e6 cells, respectively. In addition, the “EH (hepatic extraction ratio)” value in series [2] is listed as 25.0%; in series [4] it was 44.9%.

Broadly, the EC50 is the midpoint of the concentration-response curve. As a reminder, the EC90 is the point of the concentration-response curve where the effect stands at 90%. Lower therefore signals greater potency. Consider `COC(=O)c1csc(C(=O)c2c[nH]c3ccccc23)n1` [ARI-001, ITE, reference compound], for which the EC50 in series [5] (human HepG2 cells, Plate 1) is 4440 nM; in series [5] (human HepG2 cells, Plate 2) it was 29000 nM. Besides, the EC90 was determined as 13200 nM in series [5] (human HepG2 cells, Plate 1) and 458000 nM in series [5] (human HepG2 cells, Plate 2). The figures for the CLint in series [2] (1 μM test compound) and in series [4] (1 μM test compound) were 767.365 μL/min/10^6 cells and 89.786 μL/min/10^6 cells, respectively. Also, the “EH (hepatic extraction ratio)” value is reported as 31.3% in series [2] and 85.7% in series [4].

The compound `CC[C@H](O)c1csc(C(=O)c2c[nH]c3ccc(F)cc23)n1` [ARI-194] yielded an EC90 in series [5] (setting [6]) of 517 nM. In series [5] (human HepG2 cells, Plate 1), this compound returned a concentration for a half-maximal effect (EC50) of 409 nM. In addition, the half-life at 1 μM in series [1] and in series [3] was 36 min each time. For the same compound, the hepatocyte CLint at 1 μM in series [1] worked out at 20.5 µL/min/1e6 cells; in series [3], 18.2 µL/min/1e6 cells. Further, the “EH (hepatic extraction ratio)” value in series [2] amounted to 26.5%; in series [4], 55.0%.

In the case of `CC[C@@H](O)c1csc(C(=O)c2c[nH]c3ccc(F)cc23)n1` [ARI-195], the EC90 in series [5] (setting [6]) stood at 847 nM. In series [5] (human HepG2 cells, Plate 1), this compound yielded an EC50 of 289 nM. The half-life at 1 μM in series [1] was 36 min; in series [3] it was 78 min. Moreover, the hepatocyte CLint at 1 μM turned out to be 20.6 µL/min/1e6 cells in series [1] and 9.16 µL/min/1e6 cells in series [3]. Also, the entries for the “EH (hepatic extraction ratio)” value in series [2] and in series [4] were 26.5% and 38.0%, respectively.

As to `CCC(O)(CC)c1csc(C(=O)c2c[nH]c3cc(F)ccc23)n1` [ARI-210, (6-fluoro-1H-indol-3-yl)(4-(3-hydroxypentan-3-yl)thiazol-2-yl)methanone], in series [5] (setting [6]), the EC90 is 627 nM. Also, the EC50 in series [5] (human HepG2 cells, Plate 1) amounted to 241 nM. For the same compound, the half-life at 1 μM is 42 min in series [1] and 24 min in series [3]. For the same compound, the figures for the hepatocyte CLint at 1 μM in series [1] and in series [3] were 16 µL/min/1e6 cells and 29.9 µL/min/1e6 cells, respectively. Further, the figures for the “EH (hepatic extraction ratio)” value in series [2] and in series [4] were 25.4% and 66.7%, respectively.

Compound `CC[C@H](O)c1nc(C(=O)c2c[nH]c3cc(F)ccc23)cs1` [ARI-213] had an EC90 in series [5] (setting [6]) of 672 nM. Further, the midpoint of the response in series [5] (human HepG2 cells, Plate 1), the EC50, lay at 476 nM. Moreover, the half-life at 1 μM in series [1] and in series [3] was 48 min in each case. For the same compound, the figures for the hepatocyte CLint at 1 μM in series [1] and in series [3] were 14 µL/min/1e6 cells and 13.9 µL/min/1e6 cells, respectively. Further, the “EH (hepatic extraction ratio)” value in series [2] came to 24.7%; in series [4], 48.1%.

Take `CC[C@@H](O)c1nc(C(=O)c2c[nH]c3cc(F)ccc23)cs1` [ARI-214]: the 90% effect level in series [5] (setting [6]) (EC90) was put at 2810 nM. It took 582 nM to reach a half-maximal effect in series [5] (human HepG2 cells, Plate 1) (EC50). Further, the values for the half-life at 1 μM in series [1] and in series [3] were 30 min and 84 min, respectively. The hepatocyte CLint at 1 μM in series [1] turned out to be 21.5 µL/min/1e6 cells; in series [3], 8.01 µL/min/1e6 cells. Further, the “EH (hepatic extraction ratio)” value in series [2] was 26.7%; in series [4], 34.9%.

The compound `CC(C)(O)c1csc(C(=O)c2c[nH]c3ccccc23)n1` [ARI-215, (1H-indol-3-yl)(4-(2-hydroxypropan-2-yl)thiazol-2-yl)methanone] came in with an EC90 in series [5] (setting [6]) of 135 nM. The compound further registered an EC50 in series [5] (human HepG2 cells, Plate 1) of 119 nM. For the same compound, the half-life at 1 μM in series [1] is 36 min; in series [3] it was 54 min. For the same compound, the hepatocyte CLint at 1 μM in series [1] is 17.9 µL/min/1e6 cells; in series [3], 13.4 µL/min/1e6 cells. For the same compound, the “EH (hepatic extraction ratio)” value in series [2] amounted to 25.9%; in series [4], 47.3%.

Source of the values: US11390621B2, “Chiral indole compounds and their use” (ARIAGEN, INC., priority 2019, dated 2022).
